These results are taken from patent US20260273046A1, “METHOD OF VACCINATING FOR CANCER AND DEVICE AND KIT THEREFOR” (priority 2023, published 2026).

In one data set the test system is E.G7-OVA tumors. The data set is described as follows: Therapeutic intradermal vaccination of E.G7-OVA-bearing mice. As to conditions: by day 10.
The subject of a further data set is B16-OVA tumors. The data set is described as follows: Therapeutic intradermal vaccination of B16-OVA-bearing mice. The data set is classed as in vivo, C57BL/6J mice. As to conditions: i.d. vaccination at 8 and 15 days post-tumor inoculation.
Another data set deals with E.G7-OVA lymphoma cells. As to the kind of experiment: Preventive intradermal vaccination, E.G7-OVA tumor challenge. It counts as in vivo, C57BL/6J mice. The note with it: two i.d. immunizations, three-week interval, then s.c. inoculation.
The next data set deals with B16-OVA melanoma cells. As to the kind of experiment: Preventive intradermal vaccination, B16-OVA tumor challenge. The data set is classed as in vivo, C57BL/6J mice. As to conditions: two i.d. immunizations, three-week interval, then s.c. inoculation.
Data set [1] concerns tumor-specific CD8+ T cells. The note with it: intratumoral injection; cited from earlier work.
For another data set, the system named is IRF3 signaling pathway. As to the kind of experiment: IRF-Lucia luciferase reporter in THP1-Dual cells. The data set is classed as cell-based, human. The note with it: Nano-11 80 μg/ml, ADU-S100 5 μg/ml; FIG. 1F. The protocol:
(§1) For preparation of cells for activation in vitro, human THP-1 cells (TIB-202; American Type Culture Collection Manassas, VA) were cultured in complete RPMI (RPMI 1640 supplemented with 2 mM L-glutamine, 55 μM β-mercaptoethanol, 1×non-essential amino acids, 10 mM HEPES, 100 U/ml penicillin, 100 μg/ml streptomycin, and 0.25 μg/ml amphotericin) with 10% FBS. Cells were seeded at a density of 5×10^5 cells/well in a 96-well plate, stimulated with Nano-11 (80 μg/ml) and ADU-S100 (5 μg/ml) for 24 hours and 48 hours at 37° C. with 5% CO2, and then processed for flow cytometry analysis. Similarly, the NF-κB-SEAP and IRF-Luc reporter THP1-Dual cells (InvivoGen, San Diego, CA) were grown at a density of 1×10^5 cells/well in a 96-well plate in complete RPMI supplemented with 10% FBS, 100 μg/ml zeocin, 100 μg/ml normocin, and 10 μg/ml blasticidin. THP1-Dual cells were subsequently stimulated with Nano-11 (80 μg/ml) and ADU-S100 (5 μg/ml) for 24 hours and 48 hours at 37° C. with 5% CO2, and the supernatants were collected for NF-κB and IRF pathway activation quantification.
(Reporter assays use an easily measured gene product as a stand-in for the process of interest.)

The subject of another data set is OVA. The data set is described as follows: ELISA of serum OVA-specific IgG, IgG1, IgG2c titers. The data set is classed as in vivo, C57BL/6J mice. As to conditions: 10 days after second i.d. vaccination with OVA. The protocol: (§2) For all experiments, six- to eight-week-old female C57BL/6J mice were purchased from the Jackson Laboratory (Bar Harbor, ME). They were housed in ventilated cages with ad libitum access to food and water, with three to four animals per box. The room was kept at 20±2° C. and 50±15% relative humidity, with a light/dark cycle of 12 hours. An acclimatization period of one week was given to the mice before the onset of the experiments. The Purdue University Animal Care and Use Committee gave approval to all animal experiments. Mice received 20 μl of vaccine through intradermal injection into the pinna of the ear. The vaccines were administered again after 7 or 21 days. Inhalational isoflurane was used to induce anesthesia in mice. Blood and tissue samples were collected 10 days after the second immunization, unless otherwise specified.
OVA-specific IgG, IgG1, and IgG2c titers were measured by enzyme-linked immunosorbent assays (ELISA) on serum samples taken 10 days following the second vaccination, as previously reported (Hernandez-Franco (2021)). […] The reaction was stopped with the addition of 50 μl 2 M sulfuric acid, and absorbance at 450 nm (OD 450) was determined using the Synergy HT microplate reader (BioTek, Winooski, VT). End-point titers for OVA-specific antibodies were determined when the dilution at which OD 450 nm approached 0.2. […]
In general terms: ELISA stands for enzyme-linked immunosorbent assay.

Another data set has as its system NF-κB signaling pathway. As to the kind of experiment: NF-κB-SEAP reporter in THP1-Dual cells. The note with it: Nano-11 80 μg/ml, ADU-S100 5 μg/ml; FIG. 1E. The data set is classed as cell-based, human. The procedure: as §1
Data set [2] deals with metastatic solid tumors or lymphomas. The note with it: intra-tumoral injection, patients; cited from earlier work.
Data set [3] concerns recurrent or metastatic head and neck squamous cell carcinoma. The note with it: in conjunction with pembrolizumab; cited from earlier work.
Data set [4] deals with GC B cells and follicular helper T (Tfh) cells. As to the kind of experiment: Intradermal immunization with OVA: draining lymph node, GC B cells and Tfh cells. The note with it: 10 days after second i.d. injection of the ear pinna. The data set is classed as in vivo, C57BL/6J mice. The protocol: as §2
For flow cytometry analysis, single-cell suspensions were prepared from isolated splenocytes or lymph nodes and washed with Cell Staining Buffer (CSB; BioLegend, San Diego, CA). The staining protocols were conducted in accordance with the manufacturer's instructions, and unless otherwise specified, all mAbs were obtained from BioLegend. […] Flow cytometry was conducted using an Attune NxT flow cytometer (Invitrogen, Waltham, MA), and the data were analyzed using FlowJo software (FlowJo, Ashland, OR).

Data set [5] deals with SIINFEKL-specific B3Z CD8+ T cell hybridoma. As to the kind of experiment: B3Z antigen cross-presentation assay with DC2.4 cells. The data set is classed as cell-based, murine. The note with it: OVA with 80 μg/ml Nano-11 and/or 5 μg/ml ADU-S100; OD 590. The protocol: The B3Z CD8^+ T cell hybridoma cell line that expresses β-galactosidase under the control of the IL-2 promoter was utilized to detect antigen cross-presentation of the OVA 257-264 (SIINFEKL, InvivoGen, San Diego, CA) peptide (see Cruz et al., Annu. Rev. Immunol. 35: 149-176 (2017), which is incorporated herein by reference). Briefly, DC2.4 cells at 1×10^5 cells/well on 96-well round bottom plates were cultured in complete RPMI containing 10% FBS. The DC2.4 cells were stimulated with 10, 100, or 1,000 μg/ml OVA adsorbed to 80 μg/ml Nano-11 or the NanoST nanoparticle adjuvant comprised of 80 μg/ml Nano-11 and 5 μg/ml ADU-S100 (NanoST) for 3 hours at 37° C. with 5% CO2. Cells in media only or treated with 0.5 μg/ml OVA 257-264 (SIINFEKL) served as negative and positive controls, respectively. The cells were centrifuged at 300×g for 5 minutes and then washed three times with 200 μl of sterile PBS/0.1% BSA. Following fixation with 200 μl of phosphate-buffered saline (PBS)/0.2% paraformaldehyde for 15 minutes at 4° C., cells were washed twice with complete RPMI. Each well was seeded with 1×10^5 B3Z cells in complete RPMI containing 10% FBS for 16 hours at 37° C. with 5% CO2. […] After 2, 4, 6, 8, 12, and 24 hours, the conversion of […] was quantified by measuring the absorbance at 590 nm (OD 590) using a microplate reader (BioTek Instruments, Winooski, VT).

The next data set concerns human THP-1 cells. The data set is described as follows: CD80 and CD86 expression on stimulated THP-1 cells (flow cytometry). The data set is classed as cell-based. As to conditions: Nano-11 80 μg/ml, ADU-S100 5 μg/ml, 24 and 48 hours. The protocol: as §1, with “Similarly, the NF-κB-SEAP and IRF-Luc reporter THP1-Dual cells (InvivoGen, San Diego, CA) were grown at a density of 1×10^5 cells/well in a 96-well plate in complete RPMI supplemented with 10% FBS, 100 μg/ml zeocin, 100 μg/ml normocin, and 10 μg/ml blasticidin.” left out
For flow cytometry analysis, single-cell suspensions were prepared from isolated splenocytes or lymph nodes and washed with Cell Staining Buffer (CSB; BioLegend, San Diego, CA). […] Flow cytometry was conducted using an Attune NxT flow cytometer (Invitrogen, Waltham, MA), and the data were analyzed using FlowJo software (FlowJo, Ashland, OR).

The next data set concerns human STING alleles. As to conditions: cited from earlier work.

Procedure for B16-OVA melanoma cells: (§3) The efficacy of preventive cancer vaccines was investigated by two intradermal injections with OVA, Nano-11+OVA, NanoST+OVA, or PBS with a 21-day interval. Eleven days following the second injection, mice were inoculated subcutaneously in the flank with 1.0×10^6 B16-OVA, B16, or 2.5×10^6 E.G7-OVA cells suspended in 100 μl of PBS. […] Using a caliper, the length (maximum longitudinal dimension) and width (maximum transverse dimension) of the subcutaneous tumor were measured in order to determine the approximate volume. Tumor volume was calculated using the ellipsoidal formula: V=½×(Length×Width^2). Each tumor was measured by three observers to account for interobserver variability. The tumor endpoint measurements were taken when the tumors reached a volume of 2,000 mm^3, when the tumors became ulcerated, when the body condition scores dropped below 2, or when the mice became moribund. Mice without palpable tumors 32 days after tumor inoculation were considered tumor-free and euthanized.
(§4) To evaluate the contribution of CD4^+ and CD8^+ T cells response to prophylactic-mediated vaccine protection against B16-OVA and E.G7-OVA tumor formation, C57BL/6J mice were vaccinated with OVA, Nano-11+OVA, or NanoST+OVA, and 21 days later the vaccination was repeated. […] The tumor growth and survival of mice were monitored for 33 days post-tumor inoculation.
Procedure for B16-OVA tumors: (§5) To mimic therapeutic immunotherapy, C57BL/6J mice were injected subcutaneously (s.c.) with 1.0×10^6 B16-OVA or 2.5×10^6 E.G7-OVA cells on day 0 to establish the tumor model. The B16-OVA-bearing mice received the same intradermal prophylactic vaccination (OVA, Nano-11+OVA, or NanoST+OVA) 8 days after tumor inoculation, followed by a second injection on day 15. The identical vaccination regimen was administered to E.G7-OVA-26 bearing mice at 1 and 21 days after tumor inoculation. The tumor endpoint measurements were recorded as described under prophylactic cancer vaccines. Mice without visible tumors were deemed tumor-free and euthanized 32 or 33 days post-tumor inoculation.
Procedure for E.G7-OVA lymphoma cells: as §3, §4
Procedure for E.G7-OVA tumors: as §5

For the compound “OVA: endotoxin-free ovalbumin, model tumor-specific antigen, given unadjuvanted”, the tumor formation with E.G7-OVA tumors came out at 100%. Moreover, the “survival of B16-OVA tumor-bearing mice” value in the data set on B16-OVA tumors is reported as “none of the OVA-vaccinated mice survived to day 20”. Besides, the “development of E.G7-OVA lymphomas” value in the data set with E.G7-OVA lymphoma cells is “positive for tumors”. The “development of B16-OVA tumors” value in the data set on B16-OVA melanoma cells is “positive for tumors”.
In the case of `Nc1ncnc2c1ncn2[C@@H]1O[C@@H]2COP(=O)([S-])O[C@@H]3[C@H](O)[C@@H](COP([O-])(=S)O[C@H]2[C@H]1O)O[C@H]3n1cnc2c(N)ncnc21.[Na+].[Na+]` (stereo partly drawn) [ADU-S100], the “generation of tumor-specific CD8+ T cells” value in data set [1] is reported as “leads to the generation of tumor-specific CD8”. For the same compound, in the data set on IRF3 signaling pathway, the IRF3 activation result is “activated NF-κB and IRF3”. For the same compound, in the data set with OVA, the “anti-OVA IgG1 titer” value was “enhanced anti-OVA total IgG and IgG1 titers”; the “anti-OVA total IgG titer” value was “enhanced anti-OVA total IgG and IgG1 titers”. The NF-κB activation entry in the data set with NF-κB signaling pathway was “activated NF-κB and IRF3”. Besides, in data set [2], the anti-tumor activity entry is recorded as “failed to demonstrate conclusive evidence of anti-tumor activity” and the dose-limiting toxicities result is listed as “no dose-limiting toxicities”. Besides, in data set [3], the adverse reactions result was “no adverse reactions” and the anti-tumor efficacy result was “only modest anti-tumor efficacy”. Moreover, the “size of draining lymph node (superficial parotid)” value in data set [4] was “enlarged draining lymph node”. Besides, the “cross-presentation of OVA and activation of B3Z CD8+ T cells by DC2.4 cells” value in [5] was “decreased the cross-presentation of OVA”. Also, in the data set on human THP-1 cells (FIGS. 1A, 1C), the CD80 expression result is “induced CD80 expression”. The CD86 expression entry with human THP-1 cells (FIGS. 1B, 1D) is on record as “neither of which had any effect on CD86 expression”. Further, the “affinity to human STING alleles” value in the data set on human STING alleles is “superior affinity to all known human STING alleles”.
